Test results from patent US9187477B2, “Azabenzimidazole derivatives” (Boehringer Ingelheim International GmbH, priority 2013, dated 2015).
pEC50: −log10 of the molar value.

Key:
[1] = Metabolic stability: metabolic degradation with pooled human liver microsomes; assay type: in vitro ADME; details: for c (control) (metabolic stability), remaining test compound after NADPH independent incubation: incubation without NADPH, after 2 hours, human liver microsomes; for t1/2 INVITRO: pooled human liver microsomes 1 mg/ml, 37° C., test compound 1 μM, NADPH 1 mM
Experimental: The metabolic degradation of the test compound is assayed at 37° C. with pooled human liver microsomes. The final incubation volume of 100 μl per time point contains TRIS buffer pH 7.6 at room temperature (0.1 M), magnesium chloride (5 mM), microsomal protein (1 mg/ml) and the test compound at a final concentration of 1 μM.
Following a short preincubation period at 37° C., the reactions were initiated by addition of beta-nicotinamide adenine dinucleotide phosphate, reduced form (NADPH, 1 mM) and terminated by transferring an aliquot into solvent after different time points.
Additionally, the NADPH-independent degradation was monitored in incubations without NADPH, terminated at 2 hour time point. The [%] remaining test compound after NADPH independent incubation is reflected by the parameter c (control) (metabolic stability). A c (control) (metabolic stability) value around 100% excludes cofactor independent activities (e.g. from esterases).
The quenched incubations are pelleted by centrifugation (10000 g, 5 min).
An aliquot of the supernatant is assayed by LC-MS/MS for the amount of parent compound. The half-life (t1/2 INVITRO) is determined by the slope of the semilogarithmic plot of the concentration-time profile.

[2] = biological target: AMPK complex 1 (containing alpha1beta1gamma1) (Homo sapiens (Human), UniProt Q13131+Q9Y478); test: in vitro AMPK activation assay (ADP-Glo Kinase Assay); assay type: biochemical; details: AMPK alpha1beta1gamma1, ATP 30 μM, peptide 1 μM, 60 min, room temperature
Text: Activated AMPK complex 1 (containing alpha1beta1gamma1) was obtained from baculovirus expression system. The gene encoding AMPK alpha1 was cloned into the pACG2T vector (BD Biosciences) to obtain a N-terminal Glutathion S transferase (GST)-fusion protein. The genes encoding AMPK beta1 and gamma1 were cloned into the p2Bac dual multiple cloning site vector (Invitrogen) with beta1 under the control of the p10 promoter and gamma1 under the control of the PH promoter. The transfer vectors containing AMPK were co-transfected individually with AcPNV BacMagic-3 DNA (EMD Millipore) in Sf9 cells and the recombinant baculoviruses were harvested after 5 days, followed by 3 rounds of amplification of the virus stock in Sf9 cells. AMPK (alpha1beta1gamma1) was expressed in High Five 5 cells by co-infection of recombinant alpha1 virus and recombinant beta1/gamma1 virus for 72 h at 27° C. Cells were harvested by centrifugation and lysed by 3 freeze/thaw cycles in PBS with 10% glycerol and protease inhibitor cocktail (Roche). After centrifugation AMPK a1b1g1 in the supernatant was captured by immobilized glutathione (GE Healthcare), impurities were washed away with PBS and AMPK alpha1beta1gamma1 was eluted with PBS containing 20 mM reduced gluthathione. The protein buffer was then exchanged to PBS with 10% glycerol and protein concentration was determined by UV absorbance.
The white 384-well Optiplates (cat. no. 6007299) were purchased from PerkinElmer. The V9101 ADP-Glo Kinase Assay and ultra pure ATP (V915A) was purchased from Promega. The substrate for AMPK (NH2-HMRSAMSGLHLVKRR_CONH2) was purchased from Upstate (12-355).
Compounds were tested in either serial dilutions or single dose concentrations. The serial compound dilutions were prepared in 100% DMSO automatically. The final DMSO concentration in the assay was 0.1%.
The Compound Stock Solutions were 10 mM in 100% DMSO. The compounds were solubilised at room temperature.
In the 384-well plates 1.25 ul of test compound in assay buffer was mixed with 1.25 ul of AMPK and 1.25 μl of the peptide (final concentration of 1 μM) and 1.25 μl of ATP (final concentration of 30 μM), both dissolved in assay buffer. This step was followed by an incubation time of 60 min. Then 5 μl of ADP Glo Reagent was added. This was followed by 40 min of incubation. Then 10 μl of Kinase Detection Reagent was admixed. The plates were sealed and after an incubation period of 30 min, the luminescence signal was measured in an Envision reader. All incubation steps were accomplished at room temperature.
Each assay microtiter plate contained wells with vehicle controls instead of compound (0.1% DMSO in water) as reference for the low signal (100% CTL, low signal), and wells with serial dilutions of AMP (final 30 μM) as reference for high signals.
The luminescence signal generated was proportional to the ADP concentration produced and was correlated with AMPK activity. The analysis of the data was performed by the calculation of the percentage of ATP consumption of AMPK in the presence of the test compound compared to the consumption of ATP in the presence of AMPK without compound. (RLU(sample)/RLU(low control))*100[RLU=relative luminescence units]
An activator of the AMPK enzyme gave values above 100% CTL.
EC50 values based on dose response curves are calculated with the XIFIT software using the 4 Parameter Logistic Model or Sigmoidal Dose-Response Model.

Sequence of AMPK complex 1 (containing alpha1beta1gamma1) (Q13131 whole entry, the tested form may be a part): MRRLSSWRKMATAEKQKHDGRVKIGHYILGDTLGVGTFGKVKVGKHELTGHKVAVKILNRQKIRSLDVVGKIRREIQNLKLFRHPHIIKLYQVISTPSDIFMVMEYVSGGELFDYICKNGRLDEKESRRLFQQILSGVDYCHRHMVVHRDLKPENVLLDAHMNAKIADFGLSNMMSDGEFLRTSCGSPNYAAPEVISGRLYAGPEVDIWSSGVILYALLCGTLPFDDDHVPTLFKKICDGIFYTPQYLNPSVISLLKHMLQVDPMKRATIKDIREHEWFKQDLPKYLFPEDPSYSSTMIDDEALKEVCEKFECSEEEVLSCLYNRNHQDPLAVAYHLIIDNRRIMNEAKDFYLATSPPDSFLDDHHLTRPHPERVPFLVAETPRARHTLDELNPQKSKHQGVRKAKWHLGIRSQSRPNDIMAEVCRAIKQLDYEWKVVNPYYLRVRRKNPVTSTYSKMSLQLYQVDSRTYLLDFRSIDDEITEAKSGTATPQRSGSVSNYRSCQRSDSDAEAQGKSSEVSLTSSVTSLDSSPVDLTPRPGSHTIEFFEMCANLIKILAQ
Sequence of AMPK complex 1 (containing alpha1beta1gamma1) (Q9Y478 whole entry, the tested form may be a part): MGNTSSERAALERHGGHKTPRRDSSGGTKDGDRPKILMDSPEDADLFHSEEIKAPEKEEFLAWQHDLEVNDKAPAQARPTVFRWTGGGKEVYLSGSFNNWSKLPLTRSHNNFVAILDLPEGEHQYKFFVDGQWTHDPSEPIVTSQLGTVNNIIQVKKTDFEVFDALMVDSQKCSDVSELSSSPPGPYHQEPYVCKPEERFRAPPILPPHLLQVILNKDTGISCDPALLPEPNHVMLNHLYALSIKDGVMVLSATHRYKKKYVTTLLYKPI
Sequence of AMPK complex 1 (containing alpha1beta1gamma1) (P54619 whole entry partner, the tested form may be a part): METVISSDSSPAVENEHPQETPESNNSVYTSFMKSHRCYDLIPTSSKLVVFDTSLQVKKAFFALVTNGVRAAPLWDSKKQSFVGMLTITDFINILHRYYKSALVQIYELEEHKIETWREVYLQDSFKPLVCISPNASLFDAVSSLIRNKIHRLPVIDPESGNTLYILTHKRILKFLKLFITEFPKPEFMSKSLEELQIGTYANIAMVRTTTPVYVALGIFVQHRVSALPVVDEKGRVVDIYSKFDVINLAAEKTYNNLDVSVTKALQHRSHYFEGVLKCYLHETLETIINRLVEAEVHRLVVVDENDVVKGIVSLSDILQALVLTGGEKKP

Compound | c (control) (metabolic stability), remaining test compound after NADPH independent incubation [1] | t1/2 INVITRO [1] | pEC50 [2]
CCNC(=O)O[C@H]1CC[C@@H](c2ccc(-c3nc4[nH]c(O[C@@H]5CO[C@H]6[C@@H]5OC[C@H]6O)nc4cc3Cl)cc2)CC1 [Example 10, (cis)-4-(4-(6-Chloro-2-((3R,3aR,6R,6aR)-6-hydroxyhexahydrofuro[3,2-b]furan-3-yloxy)-3H-imidazo[4,5-b]pyridin-5-yl)phenyl)cyclohexyl ethylcarbamate] | 105% | >2.17 h | 7.59
CCOC(=O)NC1CCN(c2ccc(-c3nc4[nH]c(O[C@@H]5CO[C@H]6[C@@H]5OC[C@H]6O)nc4cc3Cl)cc2)CC1 [Example 1, Ethyl 1-(4-(6-chloro-2-((3R,3aR,6R,6aR)-6-hydroxyhexahydrofuro[3,2-b]furan-3-yloxy)-3H-imidazo[4,5-b]pyridin-5-yl)phenyl)piperidin-4-ylcarbamate] | 100% | >2.17 h | 8.92
CC(C)OC(=O)NC1CCN(c2ccc(-c3nc4[nH]c(O[C@@H]5CO[C@H]6[C@@H]5OC[C@H]6O)nc4cc3Cl)cc2)CC1 [Example 16, Isopropyl 1-(4-(6-chloro-2-((3R,3aR,6R,6aR)-6-hydroxyhexahydrofuro[3,2-b]furan-3-yloxy)-3H-imidazo[4,5-b]pyridin-5-yl)phenyl)piperidin-4-ylcarbamate] |  |  | 6.54
O=C(O[C@H]1CC[C@@H](c2ccc(-c3nc4[nH]c(O[C@@H]5CO[C@H]6[C@@H]5OC[C@H]6O)nc4cc3Cl)cc2)CC1)N1CCCC1 [Example 13, (cis)-4-(4-(6-Chloro-2-((3R,3aR,6R,6aR)-6-hydroxyhexahydrofuro[3,2-b]furan-3-yloxy)-3H-imidazo[4,5-b]pyridin-5-yl)phenyl)cyclohexyl pyrrolidine-1-carboxylate] |  |  | 5.69
O=C(O[C@H]1CC[C@@H](c2ccc(-c3nc4[nH]c(O[C@@H]5CO[C@H]6[C@@H]5OC[C@H]6O)nc4cc3Cl)cc2)CC1)N1CCOCC1 [Example 12, (cis)-4-(4-(6-Chloro-2-((3R,3aR,6R,6aR)-6-hydroxyhexahydrofuro[3,2-b]furan-3-yloxy)-3H-imidazo[4,5-b]pyridin-5-yl)phenyl)cyclohexyl morpholine-4-carboxylate] |  |  | 5.88
O=C(O[C@H]1CC[C@H](c2ccc(-c3nc4[nH]c(O[C@@H]5CO[C@H]6[C@@H]5OC[C@H]6O)nc4cc3Cl)cc2)CC1)N1CCOCC1 [Example 6, (trans)-4-(4-(6-Chloro-2-((3R,3aR,6R,6aR)-6-hydroxyhexahydrofuro[3,2-b]furan-3-yloxy)-3H-imidazo[4,5-b]pyridin-5-yl)phenyl)cyclohexyl morpholine-4-carboxylate] | 98% | >2.17 h | 8.22
CCNC(=O)O[C@H]1CC[C@H](c2ccc(-c3nc4[nH]c(O[C@@H]5CO[C@H]6[C@@H]5OC[C@H]6O)nc4cc3Cl)cc2)CC1 [Example 7, (trans)-4-(4-(6-Chloro-2-((3R,3aR,6R,6aR)-6-hydroxyhexahydrofuro[3,2-b]furan-3-yloxy)-3H-imidazo[4,5-b]pyridin-5-yl)phenyl)cyclohexyl ethylcarbamate] |  |  | 6.33
CC(C)NC(=O)O[C@H]1CC[C@H](c2ccc(-c3nc4[nH]c(O[C@@H]5CO[C@H]6[C@@H]5OC[C@H]6O)nc4cc3Cl)cc2)CC1 [Example 8, (trans)-4-(4-(6-Chloro-2-((3R,3aR,6R,6aR)-6-hydroxyhexahydrofuro[3,2-b]furan-3-yloxy)-3H-imidazo[4,5-b]pyridin-5-yl)phenyl)cyclohexyl isopropylcarbamate] | 102% | >2.17 h | 6.47
CC(C)NC(=O)O[C@H]1CC[C@@H](c2ccc(-c3nc4[nH]c(O[C@@H]5CO[C@H]6[C@@H]5OC[C@H]6O)nc4cc3Cl)cc2)CC1 [Example 11, (cis)-4-(4-(6-Chloro-2-((3R,3aR,6R,6aR)-6-hydroxyhexahydrofuro[3,2-b]furan-3-yloxy)-3H-imidazo[4,5-b]pyridin-5-yl)phenyl)cyclohexyl isopropylcarbamate] | 106% | 1.83 h | 7.46
CN(C)C(=O)OC1CCN(c2ccc(-c3nc4[nH]c(O[C@@H]5CO[C@H]6[C@@H]5OC[C@H]6O)nc4cc3Cl)cc2)CC1 [Example 2, 1-(4-(6-Chloro-2-((3R,3aR,6R,6aR)-6-hydroxyhexahydrofuro[3,2-b]furan-3-yloxy)-3H-imidazo[4,5-b]pyridin-5-yl)phenyl)piperidin-4-yl dimethylcarbamate] | 109% | 1.85 h | 7.49
O=C(OC1CCN(c2ccc(-c3nc4[nH]c(O[C@@H]5CO[C@H]6[C@@H]5OC[C@H]6O)nc4cc3Cl)cc2)CC1)N1CCOCC1 [Example 15, 1-(4-(6-Chloro-2-((3R,3aR,6R,6aR)-6-hydroxyhexahydrofuro[3,2-b]furan-3-yloxy)-3H-imidazo[4,5-b]pyridin-5-yl)phenyl)piperidin-4-yl morpholine-4-carboxylate] |  |  | 6.88
CC(C)OC(=O)N[C@H]1CC[C@@H](c2ccc(-c3nc4[nH]c(O[C@@H]5CO[C@H]6[C@@H]5OC[C@H]6O)nc4cc3Cl)cc2)CC1 [Example 4, Isopropyl (cis)-4-(4-(6-chloro-2-((3R,3aR,6R,6aR)-6-hydroxyhexahydrofuro[3,2-b]furan-3-yloxy)-3H-imidazo[4,5-b]pyridin-5-yl)phenyl)cyclohexylcarbamate] | 103% | >2.17 h | 7.92
CC(C)NC(=O)OC1CCN(c2ccc(-c3nc4[nH]c(O[C@@H]5CO[C@H]6[C@@H]5OC[C@H]6O)nc4cc3Cl)cc2)CC1 [Example 14, 1-(4-(6-Chloro-2-((3R,3aR,6R,6aR)-6-hydroxyhexahydrofuro[3,2-b]furan-3-yloxy)-3H-imidazo[4,5-b]pyridin-5-yl)phenyl)piperidin-4-yl isopropylcarbamate] |  |  | 6.24
